The assay addresses CK2A1 (CK2α/β) (Homo sapiens, UniProt P68400). The experiment in a line: CK2 kinase assay, CK2A1 (CK2α/β). The class given is biochemical. To be noted: Table A; read-out: CK2A1 (CK2α/β) (IC50).
Chain of CK2A1 (CK2α/β) (P68400 whole entry, species assumed): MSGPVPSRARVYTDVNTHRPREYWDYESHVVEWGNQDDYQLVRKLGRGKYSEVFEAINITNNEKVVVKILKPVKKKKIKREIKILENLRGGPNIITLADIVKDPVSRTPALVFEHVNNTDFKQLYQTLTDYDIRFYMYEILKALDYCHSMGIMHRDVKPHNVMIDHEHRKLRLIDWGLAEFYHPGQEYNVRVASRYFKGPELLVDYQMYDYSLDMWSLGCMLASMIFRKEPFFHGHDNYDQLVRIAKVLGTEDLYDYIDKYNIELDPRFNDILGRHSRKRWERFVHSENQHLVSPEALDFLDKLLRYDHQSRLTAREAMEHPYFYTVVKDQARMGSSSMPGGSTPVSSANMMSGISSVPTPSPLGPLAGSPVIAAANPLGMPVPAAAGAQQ
Chain of CK2A1 (CK2α/β) (P67870 whole entry partner, species assumed): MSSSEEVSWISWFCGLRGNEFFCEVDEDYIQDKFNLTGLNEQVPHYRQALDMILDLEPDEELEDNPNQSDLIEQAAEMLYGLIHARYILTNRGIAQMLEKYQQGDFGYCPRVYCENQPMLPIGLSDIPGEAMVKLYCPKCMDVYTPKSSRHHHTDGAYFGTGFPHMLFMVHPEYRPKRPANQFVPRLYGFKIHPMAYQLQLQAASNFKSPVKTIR
On to `CC(=O)N1CC(N2CCN(c3cc(C#N)cc(Nc4nc(NC5CC5)c5ncc(C#N)n5n4)c3Cl)C(=O)C2)C1` [Example 633, 2-((3-(4-(1-acetylazetidin-3-yl)-2-oxopiperazin-1-yl)-2-chloro-5-cyanophenyl)amino)-4-(cyclopropylamino)imidazo[2,1-f][1,2,4]triazine-7-carbonitrile], for which the IC50 came out at 1.2 nM.

Regarding `N#Cc1cc(Nc2nc(NC3CC3)c3ncc(C#N)n3n2)c(Cl)c(N2CCN(CCO)CC2=O)c1` [Example 634, 2-((2-chloro-5-cyano-3-(4-(2-hydroxyethyl)-2-oxopiperazin-1-yl)phenyl)amino)-4-(cyclopropylamino)imidazo[2,1-f][1,2,4]triazine-7-carbonitrile], the IC50 turned out to be 3 nM.

As to `CN1CCCN(c2cc(C#N)cc(Nc3nc(NC4CC4)c4ncc(C#N)n4n3)c2Cl)C(=O)C1` [Example 635, 2-((2-chloro-5-cyano-3-(4-methyl-2-oxo-1,4-diazepan-1-yl)phenyl)amino)-4-(cyclopropylamino)imidazo[2,1-f][1,2,4]triazine-7-carbonitrile], the IC50 stood at 1.83 nM.

Take `CCN1CCN(c2cc(C#N)cc(Nc3nc(NC4CC4)c4ncc(C#N)n4n3)c2Cl)C(=O)C1` [Example 636, 2-((2-chloro-5-cyano-3-(4-ethyl-2-oxopiperazin-1-yl)phenyl)amino)-4-(cyclopropylamino)imidazo[2,1-f][1,2,4]triazine-7-carbonitrile]: the IC50 stood at 1 nM.

For the molecule `CC(=O)N1CC(N2CCC(c3cc(C#N)cc(Nc4nc(NC5CC5)c5ncc(C#N)n5n4)c3F)CC2)C1` [Example 637, 2-((3-(1-(1-acetylazetidin-3-yl)piperidin-4-yl)-2-fluoro-5-cyanophenyl)amino)-4-(cyclopropylamino)imidazo[2,1-f][1,2,4]triazine-7-carbonitrile], the IC50 came to 4.79 nM.

`N#Cc1cc(Nc2nc(NC3CC3)c3ncc(C#N)n3n2)c(Cl)c(C2CCN(C3CN(C(=O)C(F)(F)F)C3)CC2)c1` [Example 638, 2-((2-chloro-5-cyano-3-(1-(1-(2,2,2-trifluoroacetyl)azetidin-3-yl)piperidin-4-yl)phenyl)amino)-4-(cyclopropylamino)imidazo[2,1-f][1,2,4]triazine-7-carbonitrile]: the IC50 is 0.8 nM.

Consider `CC(C)(C(N)=O)N1CCC(c2cc(C#N)cc(Nc3nc(NC4CC4)c4ncc(C#N)n4n3)c2Cl)CC1` [Example 641, 2-(4-(2-chloro-5-cyano-3-((7-cyano-4-(cyclopropylamino)imidazo[2,1-f][1,2,4]triazin-2-yl)amino)phenyl)piperidin-1-yl)-2-methylpropanamide], for which the IC50 was 4.01 nM.

Consider `CNC(=O)CN1CCC(c2cc(C#N)cc(Nc3nc(NC4CC4)c4ncc(C#N)n4n3)c2Cl)CC1` [Example 642, 2-(4-(2-chloro-5-cyano-3-((7-cyano-4-(cyclopropylamino)imidazo[2,1-f][1,2,4]triazin-2-yl)amino)phenyl)piperidin-1-yl)-N-methylacetamide], for which the IC50 was 0.76 nM.

Regarding `CC(C)(CO)N1CCC(c2cc(C#N)cc(Nc3nc(NC4CC4)c4ncc(C#N)n4n3)c2Cl)CC1` [Example 643, 2-((2-chloro-5-cyano-3-(1-(1-hydroxy-2-methylpropan-2-yl)piperidin-4-yl)phenyl)amino)-4-(cyclopropylamino)imidazo[2,1-f][1,2,4]triazine-7-carbonitrile], the IC50 came to 2.12 nM.

Consider `N#Cc1cc(Nc2nc(NC3CC3)c3ncc(C#N)n3n2)c(Cl)c(C2CCN(C3CCC3=O)CC2)c1` (stereo not shown) [Example 644, 2-((2-chloro-5-cyano-3-(1-(2-oxocyclobutyl)piperidin-4-yl)phenyl)amino)-4-(cyclopropylamino)imidazo[2,1-f][1,2,4]triazine-7-carbonitrile], for which the IC50 worked out at 0.85 nM.

For the molecule `CN1CCC(N2CC(O)(c3cc(C#N)cc(Nc4nc(NC5CC5)c5ncc(C#N)n5n4)c3Cl)C2)CC1` [Example 647, 2-((2-chloro-5-cyano-3-(3-hydroxy-1-(1-methylpiperidin-4-yl)azetidin-3-yl)phenyl)amino)-4-(cyclopropylamino)imidazo[2,1-f][1,2,4]triazine-7-carbonitrile], the IC50 stood at 1.94 nM.

`N#Cc1cc(Nc2nc(NC3CC3)c3ncc(C#N)n3n2)c(Cl)c(C2(O)CCN(C3COC3)CC2)c1` [Example 648, 2-((2-chloro-5-cyano-3-(4-hydroxy-1-(oxetan-3-yl)piperidin-4-yl)phenyl)amino)-4-(cyclopropylamino)imidazo[2,1-f][1,2,4]triazine-7-carbonitrile]: the IC50 turned out to be 0.85 nM.

Consider `CN1CCC(O)(c2cc(C#N)cc(Nc3nc(NC4CC4)c4ncc(C#N)n4n3)c2Cl)CC1` [Example 649, 2-((2-chloro-5-cyano-3-(4-hydroxy-1-methylpiperidin-4-yl)phenyl)amino)-4-(cyclopropylamino)imidazo[2,1-f][1,2,4]triazine-7-carbonitrile], for which the IC50 came to 1.01 nM.

In the case of `CC(=O)N1CC(N2CCC(O)(c3cc(C#N)cc(Nc4nc(NC5CC5)c5ncc(C#N)n5n4)c3Cl)CC2)C1` [Example 650, 2-((3-(1-(1-acetylazetidin-3-yl)-4-hydroxypiperidin-4-yl)-2-chloro-5-cyanophenyl)amino)-4-(cyclopropylamino)imidazo[2,1-f][1,2,4]triazine-7-carbonitrile], the IC50 was found to be 1.09 nM.

With `N#Cc1cc(Nc2nc(NC3CC3)c3ncc(C#N)n3n2)c(Cl)c(C2(O)CCNC2)c1` (stereo not shown) [Example 651, 2-((2-chloro-5-cyano-3-(3-hydroxypyrrolidin-3-yl)phenyl)amino)-4-(cyclopropylamino)imidazo[2,1-f][1,2,4]triazine-7-carbonitrile], the IC50 is 1.51 nM.

Regarding `N#Cc1cc(Nc2nc(NC3CC3)c3ncc(C#N)n3n2)c(Cl)c(C2(O)CCN(C3COC3)C2)c1` (stereo not shown) [Example 652, 2-((2-chloro-5-cyano-3-(3-hydroxy-1-(oxetan-3-yl)pyrrolidin-3-yl)phenyl)amino)-4-(cyclopropylamino)imidazo[2,1-f][1,2,4]triazine-7-carbonitrile], the IC50 turned out to be 0.83 nM.

As to `N#Cc1cc(Nc2nc(NC3CC3)c3ncc(C#N)n3n2)c(Cl)c(C2(O)COC2)c1` [Example 653, 2-((2-chloro-5-cyano-3-(3-hydroxyoxetan-3-yl)phenyl)amino)-4-(cyclopropylamino)imidazo[2,1-f][1,2,4]triazine-7-carbonitrile], the IC50 amounted to 1.84 nM.

Regarding `N#Cc1cc(Nc2nc(NC3CC3)c3ncc(C#N)n3n2)c(Cl)c(C(O)C2CCNCC2)c1` (stereo not shown) [Example 654, 2-((2-chloro-5-cyano-3-(hydroxy(piperidin-4-yl)methyl)phenyl)amino)-4-(cyclopropylamino)imidazo[2,1-f][1,2,4]triazine-7-carbonitrile], the IC50 was found to be 2.68 nM.

Take `N#Cc1cc(Nc2nc(NC3CC3)c3ncc(C#N)n3n2)c(Cl)c(C(O)C2CCN(C3COC3)CC2)c1` (stereo not shown) [Example 655, 2-((2-chloro-5-cyano-3-(hydroxy(1-(oxetan-3-yl)piperidin-4-yl)methyl)phenyl)amino)-4-(cyclopropylamino)imidazo[2,1-f][1,2,4]triazine-7-carbonitrile]: the IC50 was found to be 2.82 nM.

As to `N#Cc1cc(Nc2nc(NC3CC3)c3ncc(C#N)n3n2)c(Cl)c(C(O)C2CN(C3COC3)C2)c1` (stereo not shown) [Example 656, 2-((2-chloro-5-cyano-3-(hydroxy(1-(oxetan-3-yl)azetidin-3-yl)methyl)phenyl)amino)-4-(cyclopropylamino)imidazo[2,1-f][1,2,4]triazine-7-carbonitrile], the IC50 is 6.73 nM.

For `CC1(C(O)c2cc(C#N)cc(Nc3nc(NC4CC4)c4ncc(C#N)n4n3)c2Cl)COC1` (stereo not shown) [Example 657, 2-((2-chloro-5-cyano-3-(hydroxy(3-methyloxetan-3-yl)methyl)phenyl)amino)-4-(cyclopropylamino)imidazo[2,1-f][1,2,4]triazine-7-carbonitrile], the IC50 was 4.2 nM.

For `CN1CCC(N2CC(F)(c3cc(C#N)cc(Nc4nc(NC5CC5)c5ncc(C#N)n5n4)c3Cl)C2)CC1` [Example 658, 2-((2-chloro-5-cyano-3-(3-fluoro-1-(1-methylpiperidin-4-yl)azetidin-3-yl)phenyl)amino)-4-(cyclopropylamino)imidazo[2,1-f][1,2,4]triazine-7-carbonitrile], the IC50 worked out at 2.27 nM.

In the case of `N#Cc1cc(Nc2nc(NC3CC3)c3ncc(C#N)n3n2)c(Cl)c(C2(F)CNC2)c1` [Example 659, 2-((2-chloro-5-cyano-3-(3-fluoroazetidin-3-yl)phenyl)amino)-4-(cyclopropylamino)imidazo[2,1-f][1,2,4]triazine-7-carbonitrile], the IC50 is 0.4 nM.

As for `N#Cc1cc(Nc2nc(NC3CC3)c3ncc(C#N)n3n2)c(Cl)c(C2(F)COC2)c1` [Example 660, 2-((2-chloro-5-cyano-3-(3-fluorooxetan-3-yl)phenyl)amino)-4-(cyclopropylamino)imidazo[2,1-f][1,2,4]triazine-7-carbonitrile], the IC50 turned out to be 0.35 nM.

As for `CN1CCC(F)(c2cc(C#N)cc(Nc3nc(NC4CC4)c4ncc(C#N)n4n3)c2Cl)CC1` [Example 661, 2-((2-chloro-5-cyano-3-(4-fluoro-1-methylpiperidin-4-yl)phenyl)amino)-4-(cyclopropylamino)imidazo[2,1-f][1,2,4]triazine-7-carbonitrile], the IC50 was determined as 1.56 nM.

As to `N#Cc1cc(Nc2nc(NC3CC3)c3ncc(C#N)n3n2)c(Cl)c(C(F)C2CCNCC2)c1` (stereo not shown) [Example 662, 2-((2-chloro-5-cyano-3-(fluoro(piperidin-4-yl)methyl)phenyl)amino)-4-(cyclopropylamino)imidazo[2,1-f][1,2,4]triazine-7-carbonitrile], the IC50 was 0.48 nM.

Turning to `CC(=O)N1CCC(C(F)c2cc(C#N)cc(Nc3nc(NC4CC4)c4ncc(C#N)n4n3)c2Cl)CC1` (stereo not shown) [Example 663, 2-((3-((1-acetylpiperidin-4-yl)fluoromethyl)-2-chloro-5-cyanophenyl)amino)-4-(cyclopropylamino)imidazo[2,1-f][1,2,4]triazine-7-carbonitrile], the IC50 amounted to 0.77 nM.

As for `N#Cc1cc(CNC2CCOCC2)c(Cl)c(Nc2nc(NC3CC3)c3ncc(C#N)n3n2)c1` [Example 664, 2-((2-chloro-5-cyano-3-(((tetrahydro-2H-pyran-4-yl)amino)methyl)phenyl)amino)-4-(cyclopropylamino)imidazo[2,1-f][1,2,4]triazine-7-carbonitrile], the IC50 is 0.98 nM.
